Source: US20260335294A1, “TREATING CONGENITAL DISORDERS OF GLYCOSYLATION” (Mayo Foundation for Medical Education and Research, priority 2022, published 2026)
Marks after values point to notes of the source that are not given here.

Columns and labels:
Assay type in all cases: in vivo, human
PMM2-CDG patients [1] = assay: Carbohydrate deficient transferrin (CDT) in patients on epalrestat; details: for CDT a-oligo/di-oligo ratio: C < 0.011; for CDT mono-oligo/di-oligo ratio: C < 0.06
Excerpt: (§1) The primary objective of the study was to assess the efficacy and safety of epalrestat treatment in 3 PMM2-CDG pediatric subjects prior to a planned Phase III clinical trial (Oral epalrestat therapy in Pediatric Subjects with PMM2-CDG, NCT04925960). The secondary objective was to assess the ability of epalrestat to improve clinically relevant aspects of PMM2-CDG such as increased urine polyols (sorbitol, mannitol), abnormal glycosylation (carbohydrate deficient transferrin), abnormal coagulation (ATIII=antithrombin III), impaired liver function (ALT=Alanine Transaminase, AST=Aspartate Transaminase), neurologic function (Brief Ataxia Rating Scale=BARS), severity of phenotype (Nijmegen Pediatric CDG Rating Scale=NPCRS). The ability of epalrestat to inhibit polyol production was monitored by evaluating urine polyol levels (sorbitol, mannitol), which are elevated in PMM2-CDG. Next, carbohydrate deficient transferrin, which is abnormal in PMM2-CDG, was evaluated in order to assess improvement of glycosylation following epalrestat treatment. CDT mono-oligo/dioligo ratio and a-oligo/dioligo ratio are used to evaluate glycosylation abnormalities. Transferrin normally occurs with two glycan chains (di-oligo). In the case of glycosylation abnormalities, glycan chains are missing (A-oligo transferrin has no glycan chains, mono-oligo has one glycan chain, di-oligo has two glycan chains). The higher ratio of a-oligo/di-oligo and mono-oligo/di-oligo indicate glycosylation abnormalities are present. Therefore, improvement in a-oligo/di-oligo and mono-oligo/di-oligo ratios can be used to monitor improvement or worsening of glycosylation status. Changes in the liver enzymes AST, ALT, which are frequently elevated in PMM2-CDG, were monitored both as part of a safety study and as part of monitoring clinical improvement in coagulation. Neurologic improvement was assessed by modified BARS scores in 2 patients (3rd patient was not eligible for the test due to age at the start of the trial). NPCRS was assessed at every visit to assess changes in the severity of the patients' phenotype. Additionally, the frequency of adverse events, changes in vital signs, complete blood count, and changes in BMI were monitored.
(§2) Two patients were started on epalrestat on single patient investigational new drug (IND) (P5 IRB: 19-010017; IND #145262; P6 Protocol PMM2-CDG-001/A). Epalrestat was initiated on the parents' own initiative in the third patient (P7). Two patients were in their second year of epalrestat treatment, while the third, was in the 3rd year of treatment. Physical, neurological, and biochemical examinations were performed in 3 PMM2-CDG patients at baseline, and at every three months after the start of the epalrestat treatment. Patients underwent NPCRS phenotype severity assessment and biological sampling at every visit. Epalrestat (Ono Pharmaceuticals, Osaka, Japan) was taken orally 3 times per day (TID) before meals in a divided dose, with dosage escalation throughout the treatment. The pharmacological profile of epalrestat was as described elsewhere (Ligezka et al, Ann. Neurol., 90(6):887-900 (2021)). The starting dosage in P5 and P6 was 0.8 mg/kg/day, while P7 was started on 0.5 mg/kg/day due to their young age. P7 dosage was increased to 0.8 mg/day after a month, once safety was established. Blood and urine samples were collected routinely. Urine polyols, carbohydrate deficient transferrin (CDT), anti-thrombin III (ATIII), liver enzymes (ALT, AST), and complete blood count (CBC) were performed. Modified Brief Ataxia Rating Scale was used to assess ataxia in the 2 patients (P5, P6; P7 was not eligible for the test due to age). The modified BARS scale included Archimedes spiral test, but not the abnormalities of the ocular pursuit system and the scale range was 0-54. Goal attainment scale (GAS) was administered as described per study protocol (ClinicalTrials.gov Identifier: NCT04199000). […]

PMM2-CDG patients [2] = assay: Anti-thrombin III (ATIII) in patients on epalrestat; details: for AT III: C: 0.80-1.30
Excerpt: as §1
as §2, with “routinely.” for “routinely. Urine polyols, carbohydrate deficient transferrin (CDT), anti-thrombin III (ATIII), liver enzymes (ALT, AST), and complete blood count (CBC) were performed. Modified Brief Ataxia Rating Scale was used to assess ataxia in the 2 patients (P5, P6; P7 was not eligible for the test due to age). The modified BARS scale included Archimedes spiral test, but not the abnormalities of the ocular pursuit system and the scale range was 0-54. Goal attainment scale (GAS) was administered as described per study protocol (ClinicalTrials.gov Identifier: NCT04199000).”

PMM2-CDG patients [3] = assay: Clinical observation of lower body strength and speech; details: P7
Protocol: Two patients were started on epalrestat on single patient investigational new drug (IND) (P5 IRB: 19-010017; IND #145262; P6 Protocol PMM2-CDG-001/A). Epalrestat was initiated on the parents' own initiative in the third patient (P7). Two patients were in their second year of epalrestat treatment, while the third, was in the 3rd year of treatment. Physical, neurological, and biochemical examinations were performed in 3 PMM2-CDG patients at baseline, and at every three months after the start of the epalrestat treatment. Patients underwent NPCRS phenotype severity assessment and biological sampling at every visit. Epalrestat (Ono Pharmaceuticals, Osaka, Japan) was taken orally 3 times per day (TID) before meals in a divided dose, with dosage escalation throughout the treatment. The pharmacological profile of epalrestat was as described elsewhere (Ligezka et al, Ann. Neurol., 90(6):887-900 (2021)). The starting dosage in P5 and P6 was 0.8 mg/kg/day, while P7 was started on 0.5 mg/kg/day due to their young age. P7 dosage was increased to 0.8 mg/day after a month, once safety was established. […] Quantification of goal attainment levels is done on a 5-point scale ranging from −2 to +2, with 0 indicating the expected level of goal attainment. Three individual goals were established by each patient (parent) at baseline and the progress was annually assessed. […]

[4] = P7, Baseline column: first available results 3 months after starting treatment, 0.5, 0.8 mg/kg day

CC(/C=C1\SC(=S)N(CC(=O)O)C1=O)=C\c1ccccc1 [epalrestat]
CDT a-oligo/di-oligo ratio (PMM2-CDG patients [1]; P5, 12 months, 1.5 mg/kg day, baseline 0.005): 0.003
CDT mono-oligo/di-oligo ratio (PMM2-CDG patients [1]; P5, 12 months, 1.5 mg/kg day, baseline 0.09): 0.06
CDT a-oligo/di-oligo ratio (PMM2-CDG patients [1]; P5, 24 months, 2 mg/kg day, baseline 0.005): 0.010
CDT mono-oligo/di-oligo ratio (PMM2-CDG patients [1]; P5, 24 months, 2 mg/kg day, baseline 0.09): 0.09
CDT a-oligo/di-oligo ratio (PMM2-CDG patients [1]; P5, 28 months, 3 mg/kg day, baseline 0.005): 0.08
CDT mono-oligo/di-oligo ratio (PMM2-CDG patients [1]; P5, 28 months, 3 mg/kg day, baseline 0.09): 0.07
CDT (PMM2-CDG patients [1]; P5, words): Normalization of CDT
CDT a-oligo/di-oligo ratio (PMM2-CDG patients [1]; P6, 12 months, 1.5 mg/kg day, baseline 0.196): 0.111
CDT mono-oligo/di-oligo ratio (PMM2-CDG patients [1]; P6, 12 months, 1.5 mg/kg day, baseline 0.69): 0.43
CDT a-oligo/di-oligo ratio (PMM2-CDG patients [1]; P6, 18 months, 3 mg/kg day, baseline 0.196): 0.105
CDT mono-oligo/di-oligo ratio (PMM2-CDG patients [1]; P6, 18 months, 3 mg/kg day, baseline 0.69): 0.47
CDT (PMM2-CDG patients [1]; P6, 18 months, escalating doses, words): significant improvement in CDT with a steady trend towards normalization
CDT a-oligo/di-oligo ratio (PMM2-CDG patients [1]; P7, 12 months, 1.5 mg/kg day): 1.033
CDT mono-oligo/di-oligo ratio (PMM2-CDG patients [1]; P7, 12 months, 1.5 mg/kg day): 1.58
CDT a-oligo/di-oligo ratio (PMM2-CDG patients [1]; [4]): 0.919#
CDT mono-oligo/di-oligo ratio (PMM2-CDG patients [1]; [4]): 1.60#
CDT (PMM2-CDG patients [1]; P7, one-year mark, words): slight improvement
CDT (PMM2-CDG patients [1]; overall, words): improvement
AT III (PMM2-CDG patients [2]; P5, 12 months, 1.5 mg/kg day, baseline 0.88): 0.99 IU/mL
AT III (PMM2-CDG patients [2]; P5, 24 months, 2 mg/kg day, baseline 0.88): 0.97 IU/mL
coagulation parameters (ATIII) (PMM2-CDG patients [2]; P5-P7, words): improvement
AT III (PMM2-CDG patients [2]; P6, 18 months, 3 mg/kg day, baseline 0.25): 0.39 IU/mL
AT III (PMM2-CDG patients [2]; P7, 12 months, 1.5 mg/kg day, baseline 0.21): 0.37 IU/mL
lower body strength and speech (PMM2-CDG patients [3]): improvement in lower body strength and speech
